According to paper PMC11740379, “Novel Enyne-Modified 1,4-Thiazepines as Epidermal Growth Factor Receptor Inhibitors: Anticancer and Computational Studies” (ACS Omega, 2024):
Read-outs that look alike come from different tables or passages of the source.

What was measured:
Format in all cases: cell-based, human
[1] = tested on: MCF-7 cells; assay: XTT cytotoxicity assay, breast cancer cells; conditions: for IC50: read-out: IC50, breast cancer (MCF-7); for Selectivity index (SI), breast cancer (MCF-7): versus normal cells HEK-293
Procedure: (§1) The cells were cultured in RPMI medium (Sigma) supplemented with 10% heat-inactivated fetal bovine serum, 1% penicillin, and 1% L-glutamine, and incubated in a humidified CO2 atmosphere at 37 °C.
(§2) To evaluate the cytotoxic effects of TZEPs, which were dissolved in dimethyl sulfoxide (DMSO), the XTT assay (2,3-bis(2-methoxy-4-nitro-5-sulfophenyl)-2H-tetrazolium-5-carboxanilide) was employed. […] Following the incubation, 100 μL of XTT was added to each well, and the plates were incubated for an additional 4 h at 37 °C. The resulting color change was measured by recording the absorbance at 570 nm using a microplate reader (Tecan).
(§3) Conversely, an SI less than 1 means the drug is more toxic to normal cells than to target cells, which is undesirable in therapeutic contexts.

[2] = tested on: A549 cells; assay: XTT cytotoxicity assay, lung cancer cells; conditions: for IC50: read-out: IC50, lung cancer (A549); for Selectivity index (SI), lung cancer (A549): versus normal cells HEK-293
Procedure: as §1, §2, §3

[3] = tested on: PC-3 cells; assay: XTT cytotoxicity assay, prostate cancer cells; conditions: for IC50: read-out: IC50, prostate cancer (PC-3); for Selectivity index (SI), prostate cancer (PC-3): versus normal cells HEK-293
Procedure: as §1, §2, §3

[4] = tested on: HEK-293 cells; assay: XTT cytotoxicity assay, non-tumorigenic cells; conditions: XTT assay, exposure time of the IC50 not stated (24, 48, 72 h tested)
Procedure: Human cell lines for breast cancer (MCF-7), lung cancer (A549), prostate cancer (PC-3), and nontumorigenic HEK-293 were sourced from the Health Protection Agency (U.K.) and the Interlab Cell Line Collection (Italy). The cells were cultured in RPMI medium (Sigma) supplemented with 10% heat-inactivated fetal bovine serum, 1% penicillin, and 1% L-glutamine, and incubated in a humidified CO2 atmosphere at 37 °C.
To evaluate the cytotoxic effects of TZEPs, which were dissolved in dimethyl sulfoxide (DMSO), the XTT assay (2,3-bis(2-methoxy-4-nitro-5-sulfophenyl)-2H-tetrazolium-5-carboxanilide) was employed. Cells were plated in 96-well plates at a density of 10^4 cells per well and exposed to varying concentrations of TZEPs (ranging from 1 to 250 μM) for 24, 48, and 72 h. Following the incubation, 100 μL of XTT was added to each well, and the plates were incubated for an additional 4 h at 37 °C. The resulting color change was measured by recording the absorbance at 570 nm using a microplate reader (Tecan).
The IC50 values, which indicate the concentration of the compound required to inhibit 50% of cancer cell proliferation, were determined using Biosoft CalcuSyn 2.1 software. […] Conversely, an SI less than 1 means the drug is more toxic to normal cells than to target cells, which is undesirable in therapeutic contexts. In the literature, a selectivity index of 2 or higher is generally considered significant, implying that the compound selectively targets diseased cells with relatively low toxicity to healthy cells.[15]

[5] = tested on: MCF-7 cells; assay: Annexin V-FITC/PI apoptosis detection by flow cytometry; conditions: MCF-7, IC50 concentration, 72 h
Text: (§4) Annexin V, a protein with a high affinity for phosphatidylserine (PS), is pivotal in detecting apoptosis. Normally, PS is located in the inner leaflet of the plasma membrane, but during apoptosis, it moves to the outer leaflet, making it a key marker for apoptotic cells.[16] Annexin V binds specifically to PS on the surface of these cells. A secondary dye like propidium iodide (PI) is used to distinguish apoptotic cells from viable ones with intact membranes. We can identify and quantify viable cells (annexin V–, PI–) and apoptotic cells (annexin V+, PI+) by analyzing fluorescence patterns. Here, we employed the FITC Annexin V Apoptosis Detection Kit I from BD Pharmingen. Cells were seeded at a density of 10^6 cells per well in a 6-well plate and exposed to IC50 concentration of TZEP7 for 72 h. Following treatment, cells were rinsed with cold PBS, resuspended in 1 mL of 1× Binding Buffer, and stained with 5 μL of Annexin V FITC and 5 μL of PI. After vortexing, the samples were incubated at room temperature (25 °C) for 15 min in the dark. Postincubation, 400 μL of 1× Binding Buffer was added to each sample, and apoptosis was measured using a BD Accuri C6 Flow Cytometer. Cisplatin was used as an apoptosis-inducing reference drug.

[6] = tested on: A549 cells; assay: as above; conditions: A549, IC50 concentration, 72 h
Text: as §4

[7] = tested on: PC-3 cells; assay: as above; conditions: PC-3, IC50 concentration, 72 h
Text: as §4

[8] = Homo sapiens, MCF7, XTT assay, exposure time of the IC50 not stated (24, 48, 72 h tested)
[9] = Homo sapiens, A549, XTT assay, exposure time of the IC50 not stated (24, 48, 72 h tested)
[10] = Homo sapiens, PC-3, XTT assay, exposure time of the IC50 not stated (24, 48, 72 h tested)
[11] = XTT assay, exposure time of the IC50 not stated (24, 48, 72 h tested)

SMILES | IC50 [1, 8] | Selectivity index (SI), breast cancer (MCF-7) [1] | IC50 [2, 9] | Selectivity index (SI), lung cancer (A549) [2] | IC50 [3, 10] | Selectivity index (SI), prostate cancer (PC-3) [3] | IC50 ([4]; Homo sapiens, HEK293) | IC50 [1, 11] | IC50 [2, 11] | IC50 [3, 11] | cells in early apoptosis [5] | cells in late apoptosis [5] | cells in early apoptosis [6] | cells in late apoptosis [6] | cells in early apoptosis [7] | cells in late apoptosis [7] | IC50 [4] | IC50 ([1]; Homo sapiens, MCF7, 72 h) | IC50 ([2]; Homo sapiens, A549, 72 h) | IC50 ([3]; Homo sapiens, PC-3, 72 h)
CC(C)(C)c1ccc(C2=NC/C(=C/C#Cc3ccccc3)SC(c3ccccc3)=C2)cc1 [TZEP10] | 76.3 ± 0.8 µM | 1.16 | 64.4 ± 1.8 µM | 1.38 | 73.7 ± 3.2 µM | 1.20 | 89 ± 0.5 µM |  |  |  |  |  |  |  |  |  |  |  |  | 
Clc1ccc(C2=CC(c3ccccc3)=NC/C(=C/C#Cc3ccccc3)S2)cc1 [TZEP4] | 81.2 ± 4.4 µM | 0.58 | 71.1 ± 2.6 µM | 0.66 | 73.5 ± 2.2 µM | 0.64 | 47.3 ± 0.7 µM |  |  |  |  |  |  |  |  |  |  |  |  | 
Brc1ccc(C2=NC/C(=C/C#Cc3ccccc3)SC(c3ccccc3)=C2)cc1 [TZEP3] | 13.3 ± 1 µM | 2.66 | 60.3 ± 0.8 µM | 0.58 | 71.2 ± 0.9 µM | 0.49 | 35.5 ± 1.3 µM |  |  |  |  |  |  |  |  |  |  |  |  | 
COc1ccc(C2=NC/C(=C/C#Cc3ccccc3)SC(c3ccccc3)=C2)cc1 [TZEP11] | 98.2 ± 2.8 µM | 1.14 | 108 ± 2.6 µM | 1.04 | 81.6 ± 3.4 µM | 1.37 | 112 ± 3 µM |  |  |  |  |  |  |  |  |  |  |  |  | 
N.N.[Cl][Pt][Cl] [cisplatin, Cisplatin, reference compound] |  | 1.02 |  | 1.11 |  | 1.17 |  | 14.7 ± 0.6 µM | 13.4 ± 1.4 µM | 12.8 ± 2.8 µM | 18.7% | 72.2% | 13.4% | 70.8% | 16.2% | 75.4% | 15 ± 0.7 µM |  |  | 
Cc1ccc(C2=NC/C(=C/C#Cc3ccccc3)SC(c3ccccc3)=C2)cc1 [TZEP9] | 78.4 ± 1.8 µM | 1.26 | 96.6 ± 1.4 µM | 1.02 | 103 ± 2 µM | 0.96 | 98.8 ± 0.7 µM |  |  |  |  |  |  |  |  |  |  |  |  | 
Fc1cccc(C2=NC/C(=C/C#Cc3ccccc3)SC(c3ccccc3)=C2)c1 [TZEP2] | 66.4 ± 1.8 µM | 0.68 | 61.4 ± 1.6 µM | 0.74 | 57.7 ± 1.4 µM | 0.79 | 45.7 ± 2.7 µM |  |  |  |  |  |  |  |  |  |  |  |  | 
Clc1ccc(C2=NC/C(=C/C#Cc3ccccc3)SC(c3ccccc3Br)=C2)cc1 [TZEP6] | 15.5 ± 2.8 µM | 0.70 | 14.2 ± 2.2 µM | 0.76 | 12.4 ± 3.6 µM | 0.87 | 10.9 ± 3.4 µM |  |  |  |  |  |  |  |  |  |  |  |  | 
Cc1ccc(C#C/C=C2/CN=C(c3ccccc3)C=C(c3ccccc3)S2)cc1 [TZEP12] | 92.6 ± 1 µM | 1.19 | 90.5 ± 0.7 µM | 1.21 | 101 ± 3 µM | 1.09 | 110 ± 1.2 µM |  |  |  |  |  |  |  |  |  |  |  |  | 
C#Cc1cccc(Nc2ncnc3cc(OCCOC)c(OCCOC)cc23)c1 [erlotinib, Erlotinib, reference compound] |  |  |  |  |  |  | 12.9 ± 3 µM |  |  |  |  |  |  |  |  |  |  | 13.4 ± 2 µM | 18.4 ± 0.4 µM | 15.5 ± 30.8 µM
C(#Cc1ccccc1)/C=C1/CN=C(c2ccsc2)C=C(c2ccccc2)S1 [TZEP8] | 85.7 ± 2.4 µM | 1.15 | 112.8 ± 0.8 µM | 0.87 | 95.4 ± 1.2 µM | 1.03 | 99.2 ± 3 µM |  |  |  |  |  |  |  |  |  |  |  |  | 
C(#Cc1ccccc1)/C=C1/CN=C(c2ccccc2)C=C(c2ccccc2)S1 [TZEP1] | 69.4 ± 1.2 µM | 0.42 | 38.7 ± 3.2 µM | 0.76 | 12.4 ± 3.2 µM | 2.37 | 29.5 ± 0.8 µM |  |  |  |  |  |  |  |  |  |  |  |  | 
Brc1ccccc1C1=CC(c2ccccc2)=NC/C(=C/C#Cc2ccccc2)S1 [TZEP5] | 22.3 ± 1.8 µM | 0.91 | 45.8 ± 0.9 µM | 0.44 | 54.9 ± 3.2 µM | 0.37 | 20.4 ± 1.4 µM |  |  |  |  |  |  |  |  |  |  |  |  | 
